# Test results published in patent US20250375417A1, “OREXIN RECEPTOR 2 (OX2R) AGONIST FOR USE IN NARCOLEPSY TYPE 1 (NT1)” (TAKEDA PHARMACEUTICAL COMPANY LIMITED, priority 2024, published 2025).
# What was measured:
# participants with NT1 [1] = assay: SF-36 and EQ-5D-5L health-related quality of life, Phase 2 NT1 trial; format: in vivo, human
# Text: Health conditions such as mobility, self-care, usual activities, pain/discomfort, and/or anxiety/depression as related to NT1 can be assessed by the EQ-5D-5L assessment. The EQ-5D-5L is a standardized 5-item measure of health status developed by the EuroQol Group to provide a simple, generic measure of health for clinical and economic appraisal that has been used in a wide range of health conditions and treatments (Herdman et al. 2011; Janssen et al. 2013). The EQ-5D-5L consists of a descriptive system and the EuroQol visual analog scale (VAS). The descriptive system comprises 5 dimensions: mobility, self-care, usual activities, pain/discomfort, and anxiety/depression. The EuroQol VAS records the participant's self-rated health on a vertical VAS. This can be used as a quantitative measure of health outcome that reflects the participant's own judgment. The scores on these 5 dimensions can be presented as a health profile or can be converted to a single summary index number (utility) reflecting preferability compared with other health profiles.
# Patient health self-assessments can be measured by the SF-36. The SF-36 is a 36-item, participant-reported survey of participant health. […] Similar to each scale, the component scores are also positively scored so that higher scores represent better health-related quality-of-life. […]
# patients with NT1 = test system: patients with NT1; parameters: species or system human; details: in vivo
# participants with NT1 [2] = assay: Safety (TEAEs), LTE study interim analysis, NT1 participants; format: in vivo, human; details: for TEAE insomnia, frequency / TEAE micturition frequency, frequency / TEAE micturition urgency, frequency: LTE
# Text: This was a phase 2/3 multicenter, dose-blind, long-term extension (LTE) study of Compound A. Participants from controlled studies conducted with Compound A, who had up to a 3-month dosing gap between their parent study and the screening period for this study, were eligible to participate in this study.
# Day 1 dosing for all participants occurred in-clinic with PK and safety assessments. Participants who were undergoing nocturnal polysomnography (nPSG) and an MWT during the final assessment of their Compound A parent study had the option of staying overnight in the clinic on Day −1 so they were already in the clinic for Day 1 the following day. Clinic visits after Week 4 were scheduled monthly up to Week 12, then approximately every 3 months until the end of Year 2 (Weeks 2, 4, 8, 12, 26, 38, 52, 64, 78, 90, and 104). […] Participants had either an in-clinic or home health follow up visit 4 weeks after their last dose. All other visits could be conducted through home health. Laboratory tests for safety were obtained biweekly up until Week 12, followed by monthly until Year 1, and then approximately every 3 months thereafter. Monthly phone calls were conducted to collect adverse event (AE) and concomitant medication information in Year 2.
# In this dose-blind study, all participants received Compound A. Participants entering the study with or without a dosing gap from a parent Compound A study remained on the same indication-specific dose of Compound A assigned to them in their parent study. Participants randomized to placebo or comparator in their parent study were randomized to one of the indication-specific dose regimens of Compound A available in this study. The investigator could request a change to either a higher or lower dose level of Compound A to be dispensed at Week 8 in the LTE treatment period. Subsequently, if the participant wished to return to their original LTE dose, this could be implemented at Week 12 in the LTE. No further dose adjustments were allowed for the duration of the study, except on a case by case basis as approved by the sponsor. The dose never exceeded the maximum designated dose level in the study. For a participant with NT1, if the next highest dose was the 7 mg total daily dose, the participant was randomized to 1 of those 2 dose regimens (i.e., 2 mg followed by 5 mg, or 7 mg once daily).
# Standard safety endpoints (e.g., TEAEs, physical examination findings, vital signs, 12-lead ECG measures, clinical laboratory results) for early clinical investigation were included. Further, because cardiovascular effects had been noted in nonclinical models with Compound A and OX2R agonists in general, and these effects are thought to be on-target effects, close monitoring of cardiovascular parameters, including time-matched BP measurements before and after dosing to detect any changes and potential tolerance in BP after the administration of repeat doses to participants with NT1 or NT2 were included.
# For participants with NT1: • Dose Regimen 1: 0.5 mg twice daily, approximately 3 hours apart; • Dose Regimen 2: 2 mg followed by 2 mg, approximately 3 hours apart; • Dose Regimen 3: 2 mg followed by 5 mg, approximately 3 hours apart; * • Dose Regimen 4: 7 mg once daily.*
# Participants completing either Example 1 or Example 2 with ≤3 months between parent study-end and LTE screening could enroll. Primary endpoint is the occurrence of treatment-emergent adverse events (TEAEs); secondary endpoints are change from baseline (parent study) in sleep onset latency on the Maintenance of Wakefulness Test (SOL-MWT), Epworth Sleepiness Scale (ESS) score, and weekly cataplexy rate (WCR). Participants with NT1 receive oral Compound A 0.5 mg twice 3 hours apart, 2 mg twice 3 hours apart, 2 mg then 5 mg 3 hours apart, or 7 mg once daily. Dose adjustments are allowed at specific timepoints (8 weeks and 12 weeks of the study and at other weeks on a sponsor-approved case-by-case basis). TEAEs are summarized under the dose at TEAE onset.
# [3] = 0.5 mg/0.5 mg (dose at TEAE onset)
smiles,measurement,setting,value
"CCS(=O)(=O)N[C@@H]1[C@H](Cc2cccc(-c3cc(F)cc(F)c3)c2F)N(C(=O)C(C)(C)O)CC1(F)F [Compound A, N-{(2S,3R)-4,4-difluoro-1-(2-hydroxy-2-methylpropanoyl)-2-[(2,3′,5′-trifluoro[1,1′-biphenyl]-3-yl)methyl]pyrrolidin-3-yl}ethanesulfonamide]","SF-36 summary scores, change from baseline versus placebo",participants with NT1 [1]; all Compound A doses (FIG. 22),Statistically significant improvements
same,"EQ-5D (index score and VAS), change from baseline versus placebo",participants with NT1 [1]; all Compound A doses (FIG. 23),Statistically significant improvements
same,Improvement on CPAL total errors,patients with NT1,statistically significant across all doses
same,Improvement on ONB reaction time,patients with NT1,statistically significant across all doses
same,Improvement on iDSST-s number correct,patients with NT1,statistically significant across all doses
same,Hepatotoxicity or visual disturbances,participants with NT1 [2]; LTE interim,No cases of hepatotoxicity or visual disturbances were reported
same,"Participants with severe drug-related TEAEs (insomnia, cataplexy)",participants with NT1 [2]; LTE interim (N=104),Two
same,Participants discontinued due to TEAEs,"participants with NT1 [2]; LTE interim (N=104), 3 unrelated to Compound A",6
same,Participants who experienced a TEAE,"participants with NT1 [2]; LTE interim analysis (N=104), all doses",54.8%
same,"TEAE insomnia, frequency",participants with NT1 [2]; [3],7.1%
same,"TEAE micturition frequency, frequency",participants with NT1 [2]; [3],10.7%
same,"TEAE micturition urgency, frequency",participants with NT1 [2]; [3],10.7%
same,"TEAE insomnia, frequency",participants with NT1 [2]; 2 mg/2 mg (dose at TEAE onset),10.9%
same,"TEAE micturition frequency, frequency",participants with NT1 [2]; 2 mg/2 mg (dose at TEAE onset),4.3%
same,"TEAE micturition urgency, frequency",participants with NT1 [2]; 2 mg/2 mg (dose at TEAE onset),2.2%
same,"TEAE insomnia, frequency",participants with NT1 [2]; 2 mg/5 mg (dose at TEAE onset),10.8%
same,"TEAE micturition frequency, frequency",participants with NT1 [2]; 2 mg/5 mg (dose at TEAE onset),8.1%
same,"TEAE micturition urgency, frequency",participants with NT1 [2]; 2 mg/5 mg (dose at TEAE onset),2.7%
same,"TEAE insomnia, frequency",participants with NT1 [2]; 7 mg (dose at TEAE onset),7.9%
same,"TEAE micturition frequency, frequency",participants with NT1 [2]; 7 mg (dose at TEAE onset),7.9%
same,"TEAE micturition urgency, frequency",participants with NT1 [2]; 7 mg (dose at TEAE onset),10.5%
